These results are taken from US11325917B2, “Thienopyrazine carboxamides as ubiquitin-specific protease inhibitors” (Valo Health, Inc., priority 2016, dated 2022).

What is called IC50 is the point on the concentration scale where inhibition reaches its midpoint. High values mean weaker potency in that assay, low ones greater potency in that assay.

One assay has as its target USP28 (Homo sapiens (Human), UniProt Q96RU2). As to the kind of experiment: Ubiquitin-Rhodamine 110 Assay for USP28 Activity. The assay is classed as biochemical. The settings on record: Ub-Rh110 substrate 25 nM. As for the experimental part:
Each assay was performed in a final volume of 20 μL in assay buffer containing 20 mM Tris-HCl (pH 8.0, (1M Tris-HCl, pH 8.0 solution; Corning 46-031-CM)), 2 mM CaCl2 (1M Calcium Chloride solution; Sigma #21114) 2 mM BME (2-Mercaptoethanol; Sigma 63689-25ML-F), 0.01% Prionex ([…] filtered, Sigma #G-0411), and 0.01% Triton X-100. Stock compound solutions were stored at −20° C. as 10 mM in DMSO. Up to 1 month prior to the assay, 2 mM test compounds were pre-dispensed into assay plates (Black, low volume; Corning #3820) and frozen at −20° C. Prestamped assay plates were allowed to come to room temperature on the day of the assay. […] Plates were incubated stacked for 90 minutes at room temperature before fluorescence was read on the Envision (Excitation at 485 nm and Emission at 535 nm; Perkin Elmer) or on the PheraSTAR (Excitation at 485 nm and Emission at 535 nm; BMG Labtech).
For follow-up studies, Each assay was performed in a final volume of 15 μL in assay buffer containing 20 mM Tris-HCl (pH 8.0, (1M Tris-HCl, pH 8.0 solution; Corning 46-031-CM)), 3 mM BME (2-Mercaptoethanol; Sigma 63689-25ML-F), 0.03% BGG ([…] filtered, Sigma, G7516-25G), and 0.01% Triton X-100 (Sigma, T9284-10L). […] Fluorescence was read on the Envision (Excitation at 485 nm and Emission at 535 nm; Perkin Elmer) or on the PheraSTAR (Excitation at 485 nm and Emission at 535 nm; BMG Labtech). […]

For the next assay, the target named is USP25 (Homo sapiens (Human), UniProt Q9UHP3). Kind of assay: Ubiquitin-Rhodamine 110 Assay for USP25 Activity. The assay is classed as biochemical. The conditions noted are these: Ub-Rh110 substrate 25 nM. The protocol: The assay was performed in a final volume of 9 μL in assay buffer containing 20 mM Tris-HCl (pH 8.0, (1M Tris-HCl, pH 8.0 solution; Corning 46-031-CM)), 3 mM BME (2-Mercaptoethanol; Sigma 63689-25ML-F), 0.03% BGG (0.22 μM filtered, Sigma, G7516-25G), and 0.01% Triton X-100 (Sigma, T9284-10L). Nanoliter quantities of 10-point, 3-fold serial dilution in DMSO was pre-dispensed into 1536 assay plates (Corning, #3724BC) for a final test concentration of 25 μM to 1.3 nM, top to lowest dose, respectively. Enzyme USP25, construct USP25-His6, (Boston Biochem E-546). […] Fluorescence was read on the Envision (Excitation at 485 nm and Emission at 535 nm; Perkin Elmer) or on the PheraSTAR (Excitation at 485 nm and Emission at 535 nm; BMG Labtech).
Chain of USP25 (Q9UHP3 whole entry): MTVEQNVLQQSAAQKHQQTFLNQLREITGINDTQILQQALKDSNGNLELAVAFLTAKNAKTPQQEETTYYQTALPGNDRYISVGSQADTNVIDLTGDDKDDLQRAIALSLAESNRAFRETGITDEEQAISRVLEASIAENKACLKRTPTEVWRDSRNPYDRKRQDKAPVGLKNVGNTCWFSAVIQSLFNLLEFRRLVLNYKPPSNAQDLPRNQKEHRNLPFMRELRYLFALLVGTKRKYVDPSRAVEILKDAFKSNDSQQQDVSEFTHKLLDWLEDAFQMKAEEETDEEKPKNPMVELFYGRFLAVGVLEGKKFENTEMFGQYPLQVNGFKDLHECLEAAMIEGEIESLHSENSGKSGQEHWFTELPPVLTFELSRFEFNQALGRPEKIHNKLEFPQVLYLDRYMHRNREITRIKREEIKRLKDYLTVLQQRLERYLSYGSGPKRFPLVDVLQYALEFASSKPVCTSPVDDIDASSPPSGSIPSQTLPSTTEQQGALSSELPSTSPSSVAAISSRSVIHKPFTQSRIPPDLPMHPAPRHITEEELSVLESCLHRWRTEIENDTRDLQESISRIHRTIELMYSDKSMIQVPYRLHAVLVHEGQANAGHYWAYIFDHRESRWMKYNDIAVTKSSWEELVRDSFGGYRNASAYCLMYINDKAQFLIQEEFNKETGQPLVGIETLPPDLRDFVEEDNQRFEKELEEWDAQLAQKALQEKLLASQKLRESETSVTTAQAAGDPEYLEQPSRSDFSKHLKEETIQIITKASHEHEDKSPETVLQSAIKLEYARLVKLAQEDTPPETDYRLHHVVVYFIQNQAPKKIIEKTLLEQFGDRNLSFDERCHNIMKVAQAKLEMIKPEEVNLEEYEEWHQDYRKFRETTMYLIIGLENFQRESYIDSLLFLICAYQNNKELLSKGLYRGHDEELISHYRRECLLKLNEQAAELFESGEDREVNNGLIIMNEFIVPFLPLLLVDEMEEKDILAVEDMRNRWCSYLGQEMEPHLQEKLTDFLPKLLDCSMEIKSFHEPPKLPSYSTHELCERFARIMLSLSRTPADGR
For both the USP28 and USP25 assay formats Data were reported as percent inhibition compared with control wells based on the following equation: % inh=1−((FLU−AveLow)/(AveHigh−AveLow)) where FLU=measured Fluorescence, AveLow=average Fluorescence of no enzyme control (n=16), and AveHigh=average Fluorescence of DMSO control (n=16). IC50 values were determined by curve fitting of the standard 4 parameter logistic fitting algorithm included in the Activity Base software package: IDBS XE Designer Model205. […]

Chain of USP28 (Q96RU2 whole entry): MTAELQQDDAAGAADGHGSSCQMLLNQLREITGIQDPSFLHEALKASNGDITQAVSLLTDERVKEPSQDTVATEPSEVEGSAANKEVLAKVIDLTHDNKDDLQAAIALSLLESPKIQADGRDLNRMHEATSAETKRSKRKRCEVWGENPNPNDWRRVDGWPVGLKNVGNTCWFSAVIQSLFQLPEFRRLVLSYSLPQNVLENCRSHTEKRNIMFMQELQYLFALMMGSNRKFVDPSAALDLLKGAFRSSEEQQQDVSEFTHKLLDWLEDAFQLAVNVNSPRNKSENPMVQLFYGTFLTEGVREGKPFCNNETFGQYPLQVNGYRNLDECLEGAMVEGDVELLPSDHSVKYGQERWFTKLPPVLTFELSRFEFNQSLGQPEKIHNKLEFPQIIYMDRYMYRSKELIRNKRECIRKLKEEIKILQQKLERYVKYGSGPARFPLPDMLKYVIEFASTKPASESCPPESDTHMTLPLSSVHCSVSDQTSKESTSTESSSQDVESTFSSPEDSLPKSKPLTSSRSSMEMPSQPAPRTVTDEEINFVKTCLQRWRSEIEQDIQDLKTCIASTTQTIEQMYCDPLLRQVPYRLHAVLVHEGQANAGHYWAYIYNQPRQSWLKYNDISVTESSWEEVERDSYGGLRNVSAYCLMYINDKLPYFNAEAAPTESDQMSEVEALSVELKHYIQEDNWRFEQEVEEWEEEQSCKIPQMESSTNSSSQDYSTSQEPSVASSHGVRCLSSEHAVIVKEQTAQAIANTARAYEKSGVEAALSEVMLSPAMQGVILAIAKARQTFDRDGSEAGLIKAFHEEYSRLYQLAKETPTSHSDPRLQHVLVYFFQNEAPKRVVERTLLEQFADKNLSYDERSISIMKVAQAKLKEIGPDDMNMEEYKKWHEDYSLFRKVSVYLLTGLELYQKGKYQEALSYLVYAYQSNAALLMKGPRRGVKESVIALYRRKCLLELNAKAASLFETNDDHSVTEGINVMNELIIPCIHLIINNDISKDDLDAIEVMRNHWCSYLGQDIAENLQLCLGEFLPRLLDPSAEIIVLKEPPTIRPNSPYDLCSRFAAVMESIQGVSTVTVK

Take `Cc1cnc2c(N)c(C(=O)NCCc3cc(F)c(N4CC5CNCC(C4)O5)cc3F)sc2n1` [Compound I-20]: the IC50 against USP28 and on USP25 was less than 200 nM in each case.
